Key:
[1] = system: serotonergic neurons in rat embryo mesencephalic cultures; test: 3H-serotonin uptake in mesencephalic cultures; format: cell-based; conditions: 10 μM inhibitor
Procedure: FIGS. 24A-B depicts the specificity of GDNF to dopaminergic neurons. Cultures were prepared as described in Example 1B. GDNF was added on the day of plating, and uptake was measured after 6 days in vitro. A depicts dopamine uptake and B depicts serotonin uptake.
In the presence of 10 μM citalpram (obtained from Dr. C. Mytilineou, Mount Sinai School of Medicine), a known potent inhibitor of serotonin uptake in serotonin neurons, the ^3H-serotonin uptake was reduced to 15%.

[2] = system: GABA neurons in mesencephalic cultures; conditions: Casper et al. 1991; cited from earlier work
[3] = system: dopaminergic neurons in rat embryo (E16) mesencephalic cell cultures; conditions: Casper et al. 1991; cited from earlier work
[4] = system: serotonergic neurons in rat embryo mesencephalic cultures; conditions: Casper et al. 1991; cited from earlier work
[5] = molecular target: monoamine transporter on dopaminergic neurons (Rattus norvegicus, UniProt P23977); conditions: 0.5 mM inhibitor in uptake buffer
Chain of monoamine transporter on dopaminergic neurons (P23977 whole entry): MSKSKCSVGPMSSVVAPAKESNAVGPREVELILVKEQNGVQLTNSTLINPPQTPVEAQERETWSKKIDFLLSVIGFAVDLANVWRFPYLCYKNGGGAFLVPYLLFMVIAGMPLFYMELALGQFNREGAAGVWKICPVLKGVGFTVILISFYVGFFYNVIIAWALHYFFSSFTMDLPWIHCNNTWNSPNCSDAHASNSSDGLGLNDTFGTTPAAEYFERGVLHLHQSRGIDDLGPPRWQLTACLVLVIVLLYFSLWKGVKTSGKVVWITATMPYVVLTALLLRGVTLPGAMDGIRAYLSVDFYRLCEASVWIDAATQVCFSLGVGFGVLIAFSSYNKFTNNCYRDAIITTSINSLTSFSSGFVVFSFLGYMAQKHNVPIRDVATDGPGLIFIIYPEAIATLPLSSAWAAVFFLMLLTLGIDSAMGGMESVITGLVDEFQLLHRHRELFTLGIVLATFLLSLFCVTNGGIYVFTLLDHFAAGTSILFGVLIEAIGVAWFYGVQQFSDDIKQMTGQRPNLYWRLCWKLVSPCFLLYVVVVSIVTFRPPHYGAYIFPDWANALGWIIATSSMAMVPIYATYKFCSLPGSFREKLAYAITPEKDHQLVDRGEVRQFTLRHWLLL
Description: The functional status of the dopaminergic neurons may be assayed in these cultures by measuring dopamine uptake through specific “scavenger” transporters in the dopaminergic neurons and by counting the number of neurons positive for the dopamine synthetic enzyme tyrosine hydroxylase using immunohistochemistry.

[6] = system: GABA neurons in mesencephalic cultures; test: 14C-GABA uptake in mesencephalic cultures; format: cell-based, rat; conditions: 1 mM inhibitor
Procedure: FIGS. 21A-C depicts the specificity of GDNF to dopaminergic neurons. Cultures were established as described in Example 1B. GDNF was added on the day of plating. A. ^3H-DA uptake was measured after seven days in vitro. B. ^14C-GABA uptake was measured after eight days in vitro. Cells were incubated and treated as for ^3H-DA uptake, except the uptake buffer consists of Kreb-Ringer's phosphate buffer, pH 7.4, containing 5.6 mM glucose, 1.3 mM EDTA, 10 μM amino-oxyacetic acid (to prevent GABA breakdown), 2 mM β-alanine (to inhibit glia uptake of GABA) and 0.1 μM ^14C-GABA (150 mCi/mmole, New England Nuclear, Boston, Mass.). In the presence of 1 mM diaminobutyric acid (DABA), a potent inhibitor of ^14C-GABA uptake into GABA neurons, the ^14C-uptake was reduced to 10%. Control values in the presence of DABA were subtracted from experimental values.
H^3-dopamine (^3H-DA) and ^14C-GABA uptake were measured in sister cultures of mesencephalic cells which had been grown with various concentrations of GDNF for 15 and 16 days, respectively. As described above, GDNF enhanced the ^3H-DA uptake capacity of mesencephalic dopamine neurons ˜150% over control without GDNF (FIG. 21A). […] This is also illustrated by the increase in the ^3H-DA/^14C-GABA uptake ratio calculated (FIG. 21C).

CN(C)CCCC1(c2ccc(F)cc2)OCc2cc(C#N)ccc21 (stereo not drawn) [citalpram, reference compound]
3H-serotonin uptake remaining in presence of inhibitor [1]: 15%

epidermal growth factor (NSDSECPLSHDGYCLHDGVCMYIEALDKYACNCVVGYIGERCQYRDLKWWELR; Epidermal growth factor; UniProt P01133 971-1023, looked up) [EGF, non-specific factor increasing dopamine, serotonin and GABA uptake]
effect on GABA uptake [2]: increase | effect on dopamine uptake [3]: increase dopamine uptake | effect on serotonin uptake [4]: increase serotonin uptake

Fc1ccc(C(OCCN2CCN(CCCc3ccccc3)CC2)c2ccc(F)cc2)cc1 [GBR12909]
blank 3H-DA uptake as % of uptake in untreated control cultures [5]: less than 5%

NCCC(N)C(=O)O (stereo not drawn) [diaminobutyric acid (DABA), diaminobutyric acid, reference compound]
14C-uptake remaining in presence of inhibitor [6]: 10%

Reference: patent publication US6362319B1, “Glial cell line-derived neurotrophic factor” (Amgen Inc., priority 1991, dated 2002)
